pIC50: −log10 of the molar value. Read-outs that look alike come from different tables or passages of the source.
Assays:
[1] = test system: thromboxane production in human platelet rich plasma (TxB2); test: Thromboxane production in human platelet rich plasma (TxB2 radioimmunoassay, collagen stimulated); assay type: cell-based; settings: read-out: ACTIVITY (IC50 × 10^6 M)
Text: The antithrombotic activity of the compounds of the invention has been determined by their ability to inhibit production of thromboxane A2 (TxA2) by blood platelets the synthesis of which is an important factor in the aggregation of platelets and the initiation of thrombosis (R. J. Gryglewski, CRC Crit. Rev. Biochem., (1980), 7(4), 291).
The compounds of the invention have been tested by the following in vitro radioimmunoassays for their ability to inhibit thromboxane and affect prostacyclin production.
Thromboxane production in Human Platelet Rich Plasma
(§1) (a) Platelet rich plasma (prp) preparation
(§2) Human venous blood was […] from healthy male donors, who had denied any medication during the previous 14 days. Nine volumes of blood were mixed with one volume of 3.24% trisodium citrate. The citrated blood was centrifuged at 160 g for 10 mins. at 22° C. to obtain platelet rich plasma (prp). The platelets were then counted on a Coulter counter, and the platelet count was adjusted to 200,000 per μl with plasma.
(b) Thromboxane generation
The prp was then dispensed as aliquots into micro-Eppendorf tubes, maintained at 37° C. in a dry bath. The compounds, dissolved either in saline, ethanol, or dimethylsulphoxide, were added in duplicate to the prp aliquots to produce final concentrations in the range of 0.1-30 μg/ml. When ethanol and DMSO were used as the vehicle, triplicate controls containing the same percentage of vehicle as the test compounds were made. The final concentration of organic solvent was never more than 0.1%, which in previous experiments had no effect on TxB2 generation.
Following a 10 min. incubation with test compounds or vehicle, collagen was added to produce a final concentration of 20 μg/ml. The tubes were then whirly-mixed for 15 seconds and replaced in the dry bath for a further 10 minutes, controls received saline instead of collagen. The reaction was then stopped by rapid centrifugation (15000 g for 3 mins). The plasma was removed and frozen at -29° C. until assayed.
(c) Assay of Thromboxane B2
Briefly, 100 μl aliquots of the following, in 50 mM phosphate buffer+0.1% gelatin+thimerosal (pH 6.8) were incubated together for 16 hours at 4° C.: thromboxane TxB2 (plasma extract or standards 50 to 10,000 pg/ml), [^3 H]--TxB2 (approximately 15,000 dpm) and anti-TxB2 antiserum (0.5 μg/100 μl). The free and protein bound [^3 H]--TxB2 were separated by adsorption onto activated charcoal followed by centrifugation. […] of the supernatant was added to an aqueous scintillation fluid, and the radioactivity present was counted in a liquid scintillation counter. The binding of [^3 H]--TxB2 in the absence of added TxB2 was approximately 55%. The least amount of TxB2 to be detected accurately in the plasma was 50 pg/ml. Cross reactivity with other prostaglandins is less than 0.005% except PGD2 which is 1%.
Thus plasma samples were assayed to give a rough approximation of TxB2 content. The plasma was then appropriately diluted and assayed in duplicate to give accurate values.
The amount of TxB2 generated by the collagen was calculated by subtracting mean values obtained for the saline stimulated platelets from the mean values obtained from the collagen stimulated platelets. Then the amount of TxB2 generated in the presence of each concentration of compound was expressed as a % control and dose response curves were then constructed to determine the concentration of compound which produced a 50% inhibition.

[2] = test system: arachidonic acid induced aggregation of human prp; test: Inhibition of platelet aggregation in vitro, arachidonic acid induced (turbidometric); assay type: cell-based; settings: for IC50: Platelet, human prp, arachidonic acid, read-out: I.C.50 (μM) vs ARACHIDONIC ACID; for inhibition of arachidonic acid induced aggregation of human prp: result in words
Method: as §1, §2
(§3) Inhibition of Platelet Aggregation in vitro
In addition to the above tests, platelet aggregation in citrated prop (prepared as above) against a variety of aggregating agents was measured turbidometrically in a Payton Dual Channel Aggregometer (method as described in G.V.R. Born, Nature, (1962), 194, 927).

[3] = test system: platelet aggregation in the male retired breeder rat; test: Antiplatelet activity in the male retired breeder rat model (platelet aggregate ratio); assay type: in vivo; settings: read-out: EX50 (3h post oral administration)
Method: The retired breeder male rat may be utilized any time from 24 hours to 6 months after receipt without prior fasting or manipulation. […] The test (as described in R. N. Saunders, T. S. Burns, M. R. Selzer and E. R. Waskawic, Lab. Animal Sci., (1977), 27, 757-761) consists of the oral administration of the investigative compound either dissolved in or suspended in propylene glycol 400 at 20 mg/kg to four retired breeder male rats (40 mg of compound required). Three hours from the time of administration, the rats are ether anaesthetized, the abdominal cavity exposed and one ml of blood is withdrawn into each of two syringes from the vena cava. The first syringe contains four ml of buffered citrate/formalin solution and the second syringe contains four ml of buffered citrate alone. The syringes are inverted, held at room temperature for 15 minutes and the contents are centrifuged at 170 g for 14 minutes. Platelet counts are obtained on the undiluted solutions by means of a hemacytometer under 430×phase-contrast microscopy. The platelet aggregate ratio is obtained by dividing the platelet count of the first syringe by that of the second syringe. A ratio of 1.0 would indicate that no platelet aggregates are present whereas ratios below 1.0 indicate the presence and degree of platelet aggregate formation which has occurred.

[4] = test system: PGI2 synthesis in cultured bovine arterial endothelial cells; test: Prostacyclin production in cultured aortic endothelial cells (6-keto PGF1α radioimmunoassay); assay type: cell-based; settings: for Net PGI2 synthesis: control 120
Text: Prostacyclin Production in Cultured Aortic Endothelial Cells
Bovine aortic arch tissue was obtained from a local abattoir, and transported to the laboratory on ice. Arterial endothelial cells were obtained from the washed (phosphate buffered saline) aortic arch tissue by gentle scraping of the intima, within two hours of sacrifice. Cell suspensions were washed by centrifugation, resuspended, and propagated in Roswell Park Memorial Institute (RPMI) 1640 medium (Moore, G. E., J.A.M.A., (1967), 199, 519) 1640 medium+20% foetal calf serum (FCS)+antibiotics (1-2 doublings). The cells were then trypsinised, cloned by limiting dilution, selected colonies grown to confluence (3-4 passages), and stored in liquid nitrogen. When required, batches of cells were removed from store, resuscitated, and propagated in RPMI medium+10% FCS+antibiotics (passaged 6-15 times). At trypsinisation, representative cells from each passage were transferred to multiwell plates (1×10^5 cells/well) and incubated for 3 days (final count 3.5×10^5 cells/well).
The medium in each well of the plate was exchanged for serum and antibiotic free RPMI 1640, and a time 0 sample (100 μl) taken. Drugs or vehicle were next added as required, and a further sample (800 μl) taken from each well after a 60 minute incubation at 37° C. with gentle shaking. Prostacyclin synthesis and release into the medium over this period was estimated using an RIA technique for 6-keto PGF1α, the stable metabolite of PGI2 (New England Nuclear 6-keto PGF1α RIA kit, Catalogue No. NEK 008).
(b) Assay of 6-keto PGF1α
Briefly, 100 μl aliquots in 50 mM phosphate buffer+0.1% gelatin+0.01% thimerosal (pH 6.8) of the following were incubated together for 16 hours at 4° C.: 6-keto PGF1α (incubation medium extract or standards 10-1000 pg/0.1 ml), [^3 H]-6-keto PGF1α (approximately 15000 dpm) anti-6-keto PGF1α antiserum. The […] and protein bound [^3 H]-6-keto PGF1α were separated by adsorption onto activated charcoal followed by centrifugation. 850 μl of the supernatant was added to an aqueous scintillation fluid, and the radioactivity present counted in a liquid scintillation counter. The binding of [^3 H]-6-keto PGF1α in the absence of added 6-keto PGF1α was approximately 40%. The least amount of 6-keto PGF1α to be detected accurately in the samples was 100 pg/ml. Cross reactivity with other prostaglandins was less than 0.3% except PGE2 (2%) and PGF2α (2.7%).

[5] = test system: collagen induced aggregation of human prp; test: Inhibition of platelet aggregation in vitro, collagen induced (turbidometric); assay type: cell-based; settings: for IC50: Platelet, human prp, collagen, read-out: I.C.50 (μM) vs COLLAGEN; for inhibition of collagen induced aggregation of human prp: result in words
Method: as §1
as §2, with “Nine volumes of blood were mixed with one volume of 3.24% trisodium citrate.” left out
as §3

[6] = test system: aggregation of human platelet rich-plasma; test: Aggregation of human platelet rich plasma (aggregating agent not stated); assay type: cell-based; settings: in vitro, result in words
[7] = male breeder rat, oral, 3h post administration

SMILES	pIC50 [1]	IC50 [2] [µM]	IC50 [5] [µM]	ED50 [3, 7] [mg/kg]	further results
c1cncc(COC(COCc2ccc3c(c2)OCO3)Cn2ccnc2)c1 (centres unmarked) [Example 34]	4.89	–	–	–	–
COc1ccc(COCC(Cn2ccnc2)OCc2ccc(Cl)cc2)cc1 (centres unmarked) [Example 4]	4.64	–	–	–	–
CC(=O)Oc1ccccc1C(=O)O [aspirin, reference compound]	–	56	–	–	ED50 ([3]; Rattus norvegicus, po, 3 h): 7.7 mg/kg
COc1ccc(COCC(Cn2ccnc2)OCc2ccccc2)cc1 (centres unmarked) [Example 2]	4.96	–	–	–	–
COc1ccc(COCC(Cn2ccnc2)OCc2ccsc2)cc1 (centres unmarked) [Example 30]	4.70	–	–	–	–
COc1ccc(COCC(Cn2ccnc2)OCc2ccc(OC)cc2)cc1 (centres unmarked) [Example 1, 1-[2-[(4-methoxyphenyl)methoxy]-3-[(4-methoxyphenyl)methoxy]propyl]-1H-imidazole]	4.92	31	103	0.49	Net PGI2 synthesis ([4]; 26 µM): 125 pg 6-keto PGF1 α/60 min/3.5 × 10^5; Net PGI2 synthesis ([4]; 7.8 μm): 130 pg 6-keto PGF1 α/60 min/3.5 × 10^5; Net PGI2 synthesis ([4]; 26.0 μm): 106 pg 6-keto PGF1 α/60 min/3.5 × 10^5; Net PGI2 synthesis ([4]; 78.0 μm): 135 pg 6-keto PGF1 α/60 min/3.5 × 10^5; activation at 2.6 µM ([4]; Bos taurus, Endothelial cell, 1 h, 2.6 μm, 60 min, read-out: % Change (PGI2 synthesis)): 4%; activation at 7.8 µM ([4]; Bos taurus, Endothelial cell, 1 h, 7.8 μm, 60 min, read-out: % Change (PGI2 synthesis)): 8%; activation at 26 µM ([4]; Bos taurus, Endothelial cell, 1 h, 26.0 μm, 60 min, read-out: % Change (PGI2 synthesis)): -12%; activation at 78 µM ([4]; Bos taurus, Endothelial cell, 1 h, 78.0 μm, 60 min, read-out: % Change (PGI2 synthesis)): 12%; effect on production of prostacyclin ([4]; at concentrations equivalent to those which inhibit TxA2 formation, result in words): not to significantly effect production of prostacyclin; effect on basal PGI2 synthesis ([4]; at concentrations substantially in excess of those which inhibit platelet thromboxane synthetase, 1 hour, result in words): no significant effect on basal PGI2 synthesis; inhibition of arachidonic acid induced aggregation of human prp [2]: clearly more active than aspirin, dipyridamole, or sulphinpyrazone; inhibition of collagen induced aggregation of human prp [5]: clearly more active than aspirin, dipyridamole, or sulphinpyrazone; aggregation of human platelet rich-plasma [6]: the aggregation of human platelet rich-plasma
OCCN(CCO)c1nc(N2CCCCC2)c2nc(N(CCO)CCO)nc(N3CCCCC3)c2n1 [dipyridamole, reference compound]	–	> 200	> 200	1.8	–
COc1ccc(COCC(Cn2ccnc2)OCc2ccc3c(c2)OCO3)cc1 (centres unmarked) [Example 20]	5.40	24	89	1.8	inhibition of arachidonic acid induced aggregation of human prp [2]: clearly more active than aspirin, dipyridamole, or sulphinpyrazone; inhibition of collagen induced aggregation of human prp [5]: clearly more active than aspirin, dipyridamole, or sulphinpyrazone
COc1ccc(COCC(Cn2ccnc2)OCc2ccc(C#N)cc2)cc1 (centres unmarked) [Example 24]	4.92	–	–	–	–
COc1ccc(COC(CSCc2ccc(OC)cc2)Cn2ccnc2)cc1 (centres unmarked) [Example 35]	4.66	–	–	–	–
COc1ccc(COCC(Cn2ccnc2)OCc2ccccn2)cc1 (centres unmarked) [Example 28]	5.00	–	–	–	–
O=C1C(CC[S+]([O-])c2ccccc2)C(=O)N(c2ccccc2)N1c1ccccc1 (centres unmarked) [sulphinpyrazone, reference compound]	–	–	173	4.1	–
COc1ccc(COCC(Cn2ccnc2)OCc2cccc(OC)c2)cc1 (centres unmarked) [Example 15]	4.85	–	–	–	–

Source: patent publication US4636518A, “Imidazole derivatives and pharmaceutical compositions” (G. D. Searle & Co., priority 1981, dated 1987)
